One assay has as its target T1, HDAC10 (Homo sapiens, UniProt Q969S8).
T1 sequence (Q969S8 1-669): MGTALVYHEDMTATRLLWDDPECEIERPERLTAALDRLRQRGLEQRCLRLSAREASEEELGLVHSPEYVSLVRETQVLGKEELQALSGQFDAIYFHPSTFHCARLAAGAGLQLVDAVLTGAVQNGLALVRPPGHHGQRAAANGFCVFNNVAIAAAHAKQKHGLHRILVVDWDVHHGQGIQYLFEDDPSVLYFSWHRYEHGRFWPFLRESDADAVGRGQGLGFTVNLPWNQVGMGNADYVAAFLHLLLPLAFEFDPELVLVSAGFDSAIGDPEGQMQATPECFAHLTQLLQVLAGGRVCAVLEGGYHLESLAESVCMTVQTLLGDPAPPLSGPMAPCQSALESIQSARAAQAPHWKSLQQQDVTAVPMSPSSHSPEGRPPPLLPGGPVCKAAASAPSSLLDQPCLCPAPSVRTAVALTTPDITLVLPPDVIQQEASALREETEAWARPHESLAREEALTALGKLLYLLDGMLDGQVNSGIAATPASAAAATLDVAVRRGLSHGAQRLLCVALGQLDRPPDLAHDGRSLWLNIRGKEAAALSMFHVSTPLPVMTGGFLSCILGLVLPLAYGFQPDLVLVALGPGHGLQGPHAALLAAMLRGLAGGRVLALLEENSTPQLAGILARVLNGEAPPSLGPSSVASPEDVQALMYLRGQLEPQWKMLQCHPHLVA
The assay is described as follows: ligand displacement TR-FRET assay, HDAC10. The settings on record: FRET assay, 3f versus 1f. The assay is classed as binding. Also on record: host or cells: Sf21 insect cells (baculovirus). On the procedure:
Expression and purification of TwinStrepII‐GST‐HDAC10: A synthetic gene encoding TwinStrepII‐GST‐HDAC10 (human) was ordered from GeneArt (Thermo Fischer Scientific) and subcloned into the pFastBac1 vector. The resulting construct was used for transposition in E. coli DH10EMBacY cells. The isolated bacmid DNA was then used to generate the recombinant baculovirus. For protein expression, 10 mL of baculovirus was added to 1 L of Sf21 cells at a density of 1×10^6 cells/mL. The infected Sf21 cells were grown for 72 h in Sf‐900 III SFM medium (Thermo Fischer Scientific) at 27 °C. Cells were harvested by centrifugation and re‐suspended in running buffer (100 mM Tris pH 8.0, 150 mM NaCl, 1 mM EDTA and 1 mM DTT) supplemented with 10 mM MgCl2, benzonase and cOmplete protease inhibitors (Merck). […] The clarified lysate was then loaded onto a 5 mL Strep‐Tactin Superflow high capacity column (IBA) pre‐equilibrated in running buffer. After sample loading and washing, the TwinStrepII‐GST‐HDAC10 protein was eluted in running buffer supplemented with 5 mM desthiobiotin (IBA). The elution fractions containing TwinStrepII‐GST‐HDAC10 were pooled and concentrated before being injected onto a HiLoad 16/600 Superdex 200 pg size exclusion chromatography column (GE Healthcare) pre‐equilibrated with 25 mM HEPES/NaCl pH 7.5, 150 mM NaCl, 0.5 mM EDTA, 1 mM DTT and 10 % glycerol. Samples were eluted from the size exclusion chromatography column in the same buffer, flash‐frozen in liquid N2 and stored at −80 °C.
The TR‐FRET measurements of the monohydroxamic acids in this manuscript were measured in the original assay format, which is described directly below this paragraph. The TR‐FRET measurements of the dihydroxamic acids in this manuscript were measured in the modified format, which is described two paragraphs below this one.
The concentrations of reagents in 10 μL final assay volume were 3 nM GST‐HDAC10, 30 nM “Tubastatin‐Alexa647‐Tracer” and 0.5 nM Eu‐anti‐GST. GST‐HDAC10 and LanthaScreen™ Eu‐anti‐GST Antibody were purchased from Life Technologies, and the Tubastatin‐Alexa647‐Tracer was synthesized in‐house as previously described.19 An 11‐fold 1 : 3‐serial dilution of compounds starting at 2 mM was prepared in 384 well pp‐plates (Greiner) from 10 mM stocks in DMSO and 1 μL was transferred to assay plates. Nine μL of the reagent‐mix was added and the plate was incubated for 1 h at RT before TR‐FRET was measured in an EnVision™ plate reader equipped with a TR‐FRET Laser module. […] Percent inhibition was calculated for each well from negative control wells containing 2 % DMSO and positive control wells containing 20 μM SAHA. The resulting dose‐response curves were fitted in ActivityBase (IDBS) using a four‐parameter logistic model and pIC50‐values were calculated.
After drug dosing to the premixed assay reagents in buffer, plates were shaken (800 rpm orbital shaker, 30 s), centrifuged (300 g, 1 min) and incubated at room temperature in the dark for 60 min. TR‐FRET was measured with a CLARIOstar (BMG Labtech) plate reader, equipped with TR‐FRET filters.
For `O=C(NO)c1ccc(Cn2ncc3ccc(C(=O)NO)cc32)cc1` [Compound 3f], the “increase in HDAC10 potency over the monohydroxamic acid 1f” value was ~70 factor.

Still in this assay, the particulars now being: ligand-displacement FRET assay; read-out: HDAC10 pIC50 (converted).
On to `O=C(NO)c1ccc(Cn2ncc3ccc(C(=O)NO)cc32)cc1` [Compound 3f], for which the IC50 was 3.39 nM.
With `CN(C)Cc1nn(Cc2ccc(C(=O)NO)cc2)c2cc(C(=O)NO)ccc12` [Compound 3g], the IC50 is 3.98 nM.
In the case of `O=C(NO)c1ccc(Cn2ccc3ccc(C(=O)NO)cc32)cc1` [Compound 3a], the IC50 is 2.57 nM.
For the compound `CN(C)Cc1nn(Cc2ccc(C(=O)NO)cc2)c2ccccc12` [Compound 1g], the IC50 is 19.5 nM.
Regarding `CN1CCc2c(c3ccc(C(=O)NO)cc3n2Cc2ccc(C(=O)NO)cc2)C1` [Compound 3c], the IC50 was 12.3 nM.
As to `O=C(NO)c1ccc(Cc2c[nH]c3ccc(C(=O)NO)cc23)cc1` [Compound 3d], the IC50 was 3.24 nM.
Consider `CN(C)Cc1cn(Cc2ccc(C(=O)NO)cc2)c2cc(C(=O)NO)ccc12` [Compound 3b], for which the IC50 is 2.82 nM.
`CN(C)CCn1cc(Cc2ccc(C(=O)NO)cc2)c2cc(C(=O)NO)ccc21` [Compound 3e]: the IC50 was 3.02 nM.

The values above are taken from article PMC7335359, “Design and Synthesis of Dihydroxamic Acids as HDAC6/8/10 Inhibitors” (Chemmedchem, 2020).
